Test results taken from ChEMBL document CHEMBL4043275, “Design, synthesis and biological evaluation of phthalimide-alkylamine derivatives as balanced multifunctional cholinesterase and monoamine oxidase-B inhibitors for the treatment of Alzheimer's disease” (Bioorg Med Chem Lett, 2017).

What was measured:
Cholinesterase [1] = molecular target: Cholinesterase (Equus caballus, UniProt P81908); assay: Inhibition of equine serum BChE using butyrylthiocholine chloride as substrate incubated for 15 mins by Ellman's method
Sequence of Cholinesterase (Equus caballus, UniProt P81908) (P81908 whole entry): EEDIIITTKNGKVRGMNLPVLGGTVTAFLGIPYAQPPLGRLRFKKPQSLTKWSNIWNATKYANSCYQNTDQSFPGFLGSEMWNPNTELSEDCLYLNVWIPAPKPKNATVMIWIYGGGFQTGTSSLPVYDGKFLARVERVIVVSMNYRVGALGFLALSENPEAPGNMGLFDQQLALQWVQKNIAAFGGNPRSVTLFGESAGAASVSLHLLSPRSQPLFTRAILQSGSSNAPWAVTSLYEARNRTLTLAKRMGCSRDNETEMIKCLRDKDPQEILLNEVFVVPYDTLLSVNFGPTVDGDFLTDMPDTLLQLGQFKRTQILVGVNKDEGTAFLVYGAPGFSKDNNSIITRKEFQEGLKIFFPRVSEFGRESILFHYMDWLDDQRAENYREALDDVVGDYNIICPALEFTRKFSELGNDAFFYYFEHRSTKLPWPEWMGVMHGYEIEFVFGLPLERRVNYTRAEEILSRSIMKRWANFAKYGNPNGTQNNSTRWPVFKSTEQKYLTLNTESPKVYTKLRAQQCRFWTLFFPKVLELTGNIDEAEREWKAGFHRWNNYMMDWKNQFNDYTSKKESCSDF

[2] = Selectivity index, ratio of IC50 for equine serum BChE to IC50 for electric eel AChE
Acetylcholinesterase [3] = molecular target: T1, Acetylcholinesterase (Rattus norvegicus, UniProt P37136); assay: Inhibition of rat cortex homogenate AChE using acetylthiocholine chloride as substrate incubated for 15 mins by Ellman's method
T1 sequence (P37136 whole entry): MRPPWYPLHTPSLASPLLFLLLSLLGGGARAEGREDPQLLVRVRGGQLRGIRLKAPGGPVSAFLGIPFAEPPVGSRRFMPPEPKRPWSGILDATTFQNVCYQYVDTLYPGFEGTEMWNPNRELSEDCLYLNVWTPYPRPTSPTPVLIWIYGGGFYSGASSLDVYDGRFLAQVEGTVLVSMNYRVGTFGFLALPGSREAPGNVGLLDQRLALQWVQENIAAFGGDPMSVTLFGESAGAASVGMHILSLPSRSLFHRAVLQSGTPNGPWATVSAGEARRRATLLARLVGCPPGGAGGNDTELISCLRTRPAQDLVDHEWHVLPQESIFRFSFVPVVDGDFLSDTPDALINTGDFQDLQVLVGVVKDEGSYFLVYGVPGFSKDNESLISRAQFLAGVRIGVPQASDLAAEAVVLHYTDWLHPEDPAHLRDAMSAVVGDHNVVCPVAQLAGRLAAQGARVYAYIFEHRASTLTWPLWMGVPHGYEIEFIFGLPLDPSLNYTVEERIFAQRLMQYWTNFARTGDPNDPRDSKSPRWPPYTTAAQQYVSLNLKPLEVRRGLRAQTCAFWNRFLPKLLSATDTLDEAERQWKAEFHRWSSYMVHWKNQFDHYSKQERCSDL

Butyrylcholinesterase = Butyrylcholinesterase (Rattus norvegicus, UniProt Q9JKC1); assay: Inhibition of rat serum BChE using butyrylthiocholine chloride as substrate incubated for 15 mins by Ellman's method
Sequence of Butyrylcholinesterase (Q9JKC1 whole entry): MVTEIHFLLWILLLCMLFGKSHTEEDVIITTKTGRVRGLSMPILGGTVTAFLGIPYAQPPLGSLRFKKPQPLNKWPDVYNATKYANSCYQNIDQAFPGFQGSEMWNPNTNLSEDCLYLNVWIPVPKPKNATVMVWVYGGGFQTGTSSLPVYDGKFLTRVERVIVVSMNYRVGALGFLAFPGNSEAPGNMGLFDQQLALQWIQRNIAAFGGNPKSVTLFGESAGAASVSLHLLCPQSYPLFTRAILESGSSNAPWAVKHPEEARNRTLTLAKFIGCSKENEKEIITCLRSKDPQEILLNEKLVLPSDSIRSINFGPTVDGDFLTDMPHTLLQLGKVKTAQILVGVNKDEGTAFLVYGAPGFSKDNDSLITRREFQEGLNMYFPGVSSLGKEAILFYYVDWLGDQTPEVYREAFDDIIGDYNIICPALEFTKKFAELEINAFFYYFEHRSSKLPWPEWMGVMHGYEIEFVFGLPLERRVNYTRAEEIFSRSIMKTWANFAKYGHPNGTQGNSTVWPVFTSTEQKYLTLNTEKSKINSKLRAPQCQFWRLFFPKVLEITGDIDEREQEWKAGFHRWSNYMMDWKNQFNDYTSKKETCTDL

[4] = molecular target: T2, Amine oxidase [flavin-containing] B (Homo sapiens, UniProt P27338); assay: Inhibition of human recombinant MAO-B expressed in baculovirus infected BTI insect cells using kynuramine as substrate after 30 mins by fluorescence assay; format: cell-based
T2 sequence (P27338 whole entry): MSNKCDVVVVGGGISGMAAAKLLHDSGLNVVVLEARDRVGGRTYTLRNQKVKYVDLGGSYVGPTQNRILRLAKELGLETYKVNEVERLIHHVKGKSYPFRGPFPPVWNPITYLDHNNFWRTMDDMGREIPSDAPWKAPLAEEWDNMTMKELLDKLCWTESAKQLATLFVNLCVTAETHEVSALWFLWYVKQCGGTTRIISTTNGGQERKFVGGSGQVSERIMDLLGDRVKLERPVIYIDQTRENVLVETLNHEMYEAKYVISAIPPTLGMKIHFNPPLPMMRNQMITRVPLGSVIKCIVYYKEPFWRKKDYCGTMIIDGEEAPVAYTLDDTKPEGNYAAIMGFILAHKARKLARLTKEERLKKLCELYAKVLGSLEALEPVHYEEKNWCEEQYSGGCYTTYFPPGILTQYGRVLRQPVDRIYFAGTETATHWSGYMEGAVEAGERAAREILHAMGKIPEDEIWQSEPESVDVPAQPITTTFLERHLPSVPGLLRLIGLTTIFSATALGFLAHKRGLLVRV

Acetylcholinesterase [5] = molecular target: Acetylcholinesterase (Electrophorus electricus, UniProt O42275); assay: Inhibition of electric eel AChE using acetylthiocholine chloride as substrate incubated for 15 mins by Ellman's method
Sequence of Acetylcholinesterase (Electrophorus electricus, UniProt O42275) (O42275 whole entry): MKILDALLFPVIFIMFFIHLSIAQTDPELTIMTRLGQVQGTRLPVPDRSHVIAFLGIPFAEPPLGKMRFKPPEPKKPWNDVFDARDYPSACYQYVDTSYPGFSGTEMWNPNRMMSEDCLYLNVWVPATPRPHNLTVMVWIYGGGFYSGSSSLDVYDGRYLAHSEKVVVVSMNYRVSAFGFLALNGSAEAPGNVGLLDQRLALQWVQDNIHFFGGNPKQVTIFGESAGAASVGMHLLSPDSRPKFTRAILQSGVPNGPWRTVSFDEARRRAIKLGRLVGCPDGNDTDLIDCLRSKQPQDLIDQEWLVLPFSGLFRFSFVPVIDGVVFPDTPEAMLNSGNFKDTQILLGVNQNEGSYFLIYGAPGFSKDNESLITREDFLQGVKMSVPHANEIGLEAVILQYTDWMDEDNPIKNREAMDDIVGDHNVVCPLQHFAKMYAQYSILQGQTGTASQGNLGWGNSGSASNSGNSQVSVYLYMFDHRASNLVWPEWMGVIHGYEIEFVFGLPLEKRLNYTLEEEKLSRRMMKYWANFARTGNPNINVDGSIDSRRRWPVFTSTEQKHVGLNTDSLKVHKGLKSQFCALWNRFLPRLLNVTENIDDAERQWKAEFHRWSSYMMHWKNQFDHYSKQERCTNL

[6] = molecular target: T3, Amine oxidase [flavin-containing] A (Homo sapiens, UniProt P21397); assay: Inhibition of human recombinant MAO-A expressed in baculovirus infected BTI insect cells at 20 uM using kynuramine as substrate after 30 mins by fluorescence assay relative to control; conditions: 0.5 h
T3 sequence (P21397 whole entry): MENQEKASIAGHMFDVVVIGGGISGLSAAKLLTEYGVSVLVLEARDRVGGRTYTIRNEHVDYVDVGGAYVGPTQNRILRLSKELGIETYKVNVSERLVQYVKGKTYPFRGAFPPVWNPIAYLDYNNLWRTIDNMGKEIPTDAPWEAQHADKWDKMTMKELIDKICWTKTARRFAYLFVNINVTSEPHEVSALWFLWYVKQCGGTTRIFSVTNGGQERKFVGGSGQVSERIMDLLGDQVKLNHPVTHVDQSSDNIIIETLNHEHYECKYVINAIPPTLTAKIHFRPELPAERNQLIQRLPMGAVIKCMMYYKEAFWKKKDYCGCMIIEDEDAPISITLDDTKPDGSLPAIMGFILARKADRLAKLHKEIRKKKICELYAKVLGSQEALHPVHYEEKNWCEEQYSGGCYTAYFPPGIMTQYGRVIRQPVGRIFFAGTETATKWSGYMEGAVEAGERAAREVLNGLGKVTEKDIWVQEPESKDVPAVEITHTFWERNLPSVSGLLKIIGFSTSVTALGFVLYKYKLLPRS

Cholinesterase [7] = molecular target: Cholinesterase (Homo sapiens, UniProt P06276); assay: Inhibition of human serum BChE using butyrylthiocholine chloride as substrate incubated for 15 mins by Ellman's method
Sequence of Cholinesterase (Homo sapiens, UniProt P06276) (P06276 whole entry): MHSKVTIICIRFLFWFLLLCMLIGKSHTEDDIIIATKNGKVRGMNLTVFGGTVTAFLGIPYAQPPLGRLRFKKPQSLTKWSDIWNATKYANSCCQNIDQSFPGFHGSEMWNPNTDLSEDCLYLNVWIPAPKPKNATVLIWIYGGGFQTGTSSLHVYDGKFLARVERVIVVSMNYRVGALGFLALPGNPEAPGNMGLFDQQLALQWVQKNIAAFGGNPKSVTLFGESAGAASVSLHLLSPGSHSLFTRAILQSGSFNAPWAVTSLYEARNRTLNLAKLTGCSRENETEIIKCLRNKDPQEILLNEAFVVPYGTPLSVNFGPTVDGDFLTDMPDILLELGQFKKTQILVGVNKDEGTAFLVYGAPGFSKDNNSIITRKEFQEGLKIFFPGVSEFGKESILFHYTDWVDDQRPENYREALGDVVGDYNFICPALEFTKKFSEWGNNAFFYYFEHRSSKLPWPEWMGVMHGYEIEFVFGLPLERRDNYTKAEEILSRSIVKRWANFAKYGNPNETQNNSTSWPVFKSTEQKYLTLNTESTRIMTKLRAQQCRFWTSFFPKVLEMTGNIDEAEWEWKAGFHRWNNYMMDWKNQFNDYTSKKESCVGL

Acetylcholinesterase [8] = molecular target: Acetylcholinesterase (Homo sapiens, UniProt P22303); assay: Inhibition of human erythrocyte AChE using acetylthiocholine chloride as substrate incubated for 15 mins by Ellman's method
Sequence of Acetylcholinesterase (Homo sapiens, UniProt P22303) (P22303 whole entry): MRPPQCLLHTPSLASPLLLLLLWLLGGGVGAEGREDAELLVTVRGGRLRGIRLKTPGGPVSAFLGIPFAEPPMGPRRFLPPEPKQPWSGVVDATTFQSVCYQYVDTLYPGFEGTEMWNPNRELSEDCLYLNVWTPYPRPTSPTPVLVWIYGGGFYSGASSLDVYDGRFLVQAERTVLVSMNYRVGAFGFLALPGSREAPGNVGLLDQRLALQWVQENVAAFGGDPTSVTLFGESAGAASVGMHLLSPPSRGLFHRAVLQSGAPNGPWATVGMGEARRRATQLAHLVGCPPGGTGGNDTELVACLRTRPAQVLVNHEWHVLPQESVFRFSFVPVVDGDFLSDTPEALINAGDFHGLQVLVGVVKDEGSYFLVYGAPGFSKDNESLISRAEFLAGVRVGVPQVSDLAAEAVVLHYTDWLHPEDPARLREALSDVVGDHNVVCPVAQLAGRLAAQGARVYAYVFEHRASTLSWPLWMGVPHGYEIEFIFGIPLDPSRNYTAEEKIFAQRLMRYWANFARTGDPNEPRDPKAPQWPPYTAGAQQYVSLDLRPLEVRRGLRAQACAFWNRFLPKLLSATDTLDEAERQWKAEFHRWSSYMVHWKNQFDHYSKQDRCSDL

SMILES	IC50 (Cholinesterase [1])	Ratio IC50 [2]	IC50 (Acetylcholinesterase [3])	IC50 (Butyrylcholinesterase)	IC50 [4]	IC50 (Acetylcholinesterase [5])	inhibition at 20 µM [6]	IC50 (Cholinesterase [7])	IC50 (Acetylcholinesterase [8])
CC(C)N1CCN(CCCN2C(=O)c3ccccc3C2=O)CC1	34.9 µM	2.7	8.3 µM	32.9 µM	10.4 µM	12.9 µM	< 5%	–	–
CCN(CCCCCCN1C(=O)c2ccccc2C1=O)Cc1ccccc1	11 µM	11	3.4 µM	18.1 µM	12.2 µM	1 µM	< 5%	15.8 µM	3.7 µM
COc1ccccc1CN(C)CCCN1C(=O)c2ccccc2C1=O	3.7 µM	0.8	9.8 µM	27.7 µM	9.8 µM	4.6 µM	< 5%	–	–
CCN(CCCCN1C(=O)c2ccccc2C1=O)Cc1ccccc1OC	31 µM	238	0.04 µM	18.9 µM	9.4 µM	0.13 µM	< 5%	12.9 µM	0.28 µM
C#CCN(CCCCCN1C(=O)c2ccccc2C1=O)Cc1ccccc1	13.9 µM	4.1	10.4 µM	58.5 µM	5.9 µM	3.4 µM	< 5%	–	–
CCN(CCN1C(=O)c2ccccc2C1=O)Cc1ccccc1	21.9 µM	2.4	13.2 µM	16.1 µM	8.3 µM	9.3 µM	< 5%	–	–
COc1ccccc1CN(C)CCCCCCN1C(=O)c2ccccc2C1=O	30.6 µM	27.8	0.6 µM	42.9 µM	11.3 µM	1.1 µM	< 5%	–	–
C#CCN(CCCCCN1C(=O)c2ccccc2C1=O)Cc1ccccc1OC	26.3 µM	2.7	14 µM	44.4 µM	6.3 µM	9.6 µM	< 5%	–	–
CC(C)N1CCN(CCCCCCN2C(=O)c3ccccc3C2=O)CC1	19.4 µM	2.2	6.3 µM	27.9 µM	13.1 µM	8.8 µM	< 5%	–	–
C#CCN(CCCCCCN1C(=O)c2ccccc2C1=O)Cc1ccccc1	7.6 µM	1.1	7.6 µM	16.2 µM	8.2 µM	6.8 µM	< 5%	–	–
C#CCN[C@@H]1CCc2ccccc21 [RASAGILINE]	–	–	–	–	–	–	–	4.76 µM	0.019 µM
CN(CCCCCCN1C(=O)c2ccccc2C1=O)Cc1ccccc1	17.9 µM	8.5	3.9 µM	20.7 µM	8.3 µM	2.1 µM	< 5%	–	–
CC(C)N1CCN(CCCCCN2C(=O)c3ccccc3C2=O)CC1	34.5 µM	4.4	5.4 µM	16.3 µM	12.6 µM	7.9 µM	< 5%	–	–
CC(C)N1CCN(CCCCN2C(=O)c3ccccc3C2=O)CC1	23.4 µM	4.4	3.9 µM	17.9 µM	8.9 µM	5.3 µM	< 5%	–	–
